Data: US9687480B2, “Chiral 1-(4-methylphenylmethyl)-5-oxo-{N-[(3-t-butoxycarbonyl-aminomethyl)]-piperidin-1-yl)-pyrrolidine as inhibitors of collagen induced platelet activation and adhesion” (Council of Scientific & Industrial Research, priority 2011, dated 2017)

Legend:
[1] = molecular target: T1, GPVI (Homo sapiens, UniProt Q9HCN6); test: GPVI-mediated platelet adhesion assay on fibrillar collagen (human, in vitro); type: cell-based; conditions: for Platelet adhesion: Table 2 summary, collagen type not stated, effective concentration in brackets: mixture 100 μM, compound 6 30 & 100 μM, compound 7 100 μM; for human platelet adhesion on fibrillar collagen (GP VI mediated): in vitro, washed platelets, divalent cation-free
T1 construct: Washed platelets, suspended in the Tyrode's-HEPES buffer; endogenous in cells; host or cells: washed human platelets from healthy volunteers
T1 sequence (Q9HCN6 21-339): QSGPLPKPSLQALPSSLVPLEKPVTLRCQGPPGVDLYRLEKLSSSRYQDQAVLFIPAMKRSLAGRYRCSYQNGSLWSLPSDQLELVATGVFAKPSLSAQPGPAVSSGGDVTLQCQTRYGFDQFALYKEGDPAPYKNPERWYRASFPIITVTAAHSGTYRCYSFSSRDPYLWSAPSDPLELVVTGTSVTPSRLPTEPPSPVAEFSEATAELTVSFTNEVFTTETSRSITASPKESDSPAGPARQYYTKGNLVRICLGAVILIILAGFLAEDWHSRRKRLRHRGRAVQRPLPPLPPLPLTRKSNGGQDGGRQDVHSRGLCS
T1 sequence (P30273 19-86 partner): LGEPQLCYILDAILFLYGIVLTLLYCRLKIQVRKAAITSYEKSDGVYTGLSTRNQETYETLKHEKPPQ
Method: (§1) Fresh blood was drawn by venipuncture from consenting healthy human volunteers in citrate-phosphate-dextrose. Platelet-rich plasma (PRP) was obtained by centrifugation at 180 g for 20 minutes at room temperature (Beckman TJ6. USA). […] Platelets were then washed twice with Buffer (20 mMHEPES, 138 mM NaCl, 2.9 mMKCl, 1 mMMgCl2, 0.36 mMNaH2PO4, 1 mM EGTA, 4.77 mM trisodium citrate, and 2.35 mM citric acid, 5 mM glucose and Apyrase 1 U/ml, pH 6.5) containing 0.1% bovine serum albumin (BSA) and finally resuspended in the HEPES-buffered Tyrode solution (pH 7.4), to give a concentration of 2×10^8 cells/mL (Jandrot-Perrus M. Lagrue A H, Okuma M, and Boni C Adhesion and Activation of Human Platelets Induced by Convulxin Involve Glycoprotein VI and Integrin α2β1 J. Biol. Chem. 1997; 272: 27035-27041).
Integrin α2β1 binding on soluble collagen depends on the presence of Mg2+/Ca^2+ (Onley D. J., Knight C. G., Tuckwell D. S., Barnes M. J., and Farndale R. W. Micromolar Ca2+ concentrations are essential for Mg2+-dependent binding of collagen by the integrin α2β1 in human platelets. J. Biol. Chem, 2000; 275: 24560-24564.) while GPVI mediates adhesion over fibrillar collagen in absence of divalent ions (Nieswandt B., Brakebusch C, Bergmeier W, Schulte V, Bouvard D, Nejad R M, Lindhout T, Heemskerk J W M, Zirngibl H and Fassler R. Glycoprotein VI but not α2b1 integrin is essential for platelet interaction with collagen. The EMBO Journal, 2001; 20:2120-2130) and therefore the adhesion assays were performed in the presence or absence of these divalent cations. Ninety-six well micro titer plates were coated with insoluble equine tendon fibrillar type I collagen or soluble rat tail type I (non-fibrillar) collagen, maintained in acetate buffer (pH 4.5), (Nakamura T., Jamieson G. A., Okuma M., Kambayashi J., and Tendon N. N. Platelet Adhesion to Native Type I Collagen Fibrils: role of gpVI in divalent cation-dependent and -independent adhesion and thromboxane A2 generation. J. Biol. Chem 1998; 273: 4338-[…], Tendon N N, Ockenhouse C F, Greco N J, Jamieson G A. Adhesive functions of platelet lacking GPIV (CD36). Blood 1991: 78: 2809-13). The unoccupied protein binding sites on the wells were blocked with 5 mg/ml BSA at room temperature for 1 hour, and then rinsed once in PBS. Washed platelets, suspended in the Tyrode's-HEPES buffer (136.7 mM NaCl, 13.8 mM NaHCO3, 0.36 mM NaH2PO4.H2O, 2.6 mM KCl, 1.0 mM MgCl2.6H2O, 5.5 mM glucose, 0.5% BSA, pH 7.4) at 1×10^8 cells/mL were pre-incubated with compounds for 30 min at 37° C. and added to the wells (10^7/well) for 1 h at room temperature. Divalent cation-free adhesion buffer was made by replacing Mg^2+ (1 mM) in the Tyrode-HEPES buffer with 50 μM EDTA (Yoshida S., Sudo T., Niimi M., Tao L., Sun B., Kambayashi J., Watanabe H., Luo E., and Matsuoka H. Inhibition of collagen-induced platelet aggregation by anopheline antiplatelet protein, a saliva protein from a malaria vector mosquito. Blood 2007; 111: 2007-201). After three washes in Tyrode's buffer, the number of adherent platelets was evaluated colorimetrically (as described by Bellavite P., Andrioli G., Gizzo P., Arigliano P., Chirumbolo S., Manzato F, Santonastaso C. A colorimetric method for the measurement of platelet adhesion in microtifer plates. Anal. Biochem. 1994; 216:444-450. Briefly, 150 μl of a 0.1 M citrate buffer (pH 5.4), containing 5 mM p-nitrophenyl phosphate and 0.1% TritonX-100 was added to the wells after washing. After incubation for 60 min at 25° C. in the absence of ambient light, colour was developed by the addition of 100 μl of 2N NaOH and the absorbance at 405 nm was read using a microplate reader (Powerware XS, Biotek, USA).

[2] = tested on: hamster whole blood (Collagen 2.5 μg/ml); test: Whole blood aggregation in hyperlipidemic hamsters (ex vivo), collagen induced; conditions: Table 2 summary
[3] = molecular target: T2, Integrin α2β1 (Homo sapiens, UniProt P05556+P17301); test: α2β1-mediated platelet adhesion assay on soluble collagen (human, in vitro); type: cell-based; conditions: washed platelets, with Mg2+
T2 construct: Washed platelets, suspended in the Tyrode's-HEPES buffer; endogenous in cells; host or cells: washed human platelets from healthy volunteers
Method: as §1
Integrin α2β1 binding on soluble collagen depends on the presence of Mg2+/Ca^2+ (Onley D. J., Knight C. G., Tuckwell D. S., Barnes M. J., and Farndale R. W. Micromolar Ca2+ concentrations are essential for Mg2+-dependent binding of collagen by the integrin α2β1 in human platelets. J. Biol. Chem, 2000; 275: 24560-24564.) while GPVI mediates adhesion over fibrillar collagen in absence of divalent ions (Nieswandt B., Brakebusch C, Bergmeier W, Schulte V, Bouvard D, Nejad R M, Lindhout T, Heemskerk J W M, Zirngibl H and Fassler R. Glycoprotein VI but not α2b1 integrin is essential for platelet interaction with collagen. The EMBO Journal, 2001; 20:2120-2130) and therefore the adhesion assays were performed in the presence or absence of these divalent cations. […]

[4] = molecular target: T3, human α-thrombin (Homo sapiens, UniProt P00734); test: Amidolytic assay of thrombin activity (fluorogenic substrate); type: biochemical; conditions: compound 1 at 300 μM and 1 mM after 15 min of substrate incubation
T3 construct: amidolytic activity of human α-thrombin using fluorogenic substrate

[5] = tested on: human platelet rich plasma (Ristocetin, GP 1b specific agonist); test: Ristocetin induced platelet aggregation, human platelet rich plasma (in vitro); type: cell-based; conditions: 1.5 mg/ml Ristocetin
Method: The reaction was allowed to proceed for at least 5 min, and the extent of aggregation was expressed in light-transmission units (Ivandic B T, Schlick P, Starltz P, Kurz K, Katas H A, Giannitsis E. Determination of clopidogrel resistance by whole blood platelet aggregometry and inhibitors of the P2Y12 receptor. Clinical Chemistry 2006: 52:383-88).
The percentage of aggregation was calculated by using following formula: Percent Aggregation=A/B×100 Where, A is the number of division traversed by the label on chart in the presence of Inducer & B is the total number of divisions (80). Platelet Aggregation Studies (FIG. 3) a) Platelet Aggregation (Human, In Vitro) (FIG. 3a (i) (ii) (iii))

T2 sequence (P17301 30-1181): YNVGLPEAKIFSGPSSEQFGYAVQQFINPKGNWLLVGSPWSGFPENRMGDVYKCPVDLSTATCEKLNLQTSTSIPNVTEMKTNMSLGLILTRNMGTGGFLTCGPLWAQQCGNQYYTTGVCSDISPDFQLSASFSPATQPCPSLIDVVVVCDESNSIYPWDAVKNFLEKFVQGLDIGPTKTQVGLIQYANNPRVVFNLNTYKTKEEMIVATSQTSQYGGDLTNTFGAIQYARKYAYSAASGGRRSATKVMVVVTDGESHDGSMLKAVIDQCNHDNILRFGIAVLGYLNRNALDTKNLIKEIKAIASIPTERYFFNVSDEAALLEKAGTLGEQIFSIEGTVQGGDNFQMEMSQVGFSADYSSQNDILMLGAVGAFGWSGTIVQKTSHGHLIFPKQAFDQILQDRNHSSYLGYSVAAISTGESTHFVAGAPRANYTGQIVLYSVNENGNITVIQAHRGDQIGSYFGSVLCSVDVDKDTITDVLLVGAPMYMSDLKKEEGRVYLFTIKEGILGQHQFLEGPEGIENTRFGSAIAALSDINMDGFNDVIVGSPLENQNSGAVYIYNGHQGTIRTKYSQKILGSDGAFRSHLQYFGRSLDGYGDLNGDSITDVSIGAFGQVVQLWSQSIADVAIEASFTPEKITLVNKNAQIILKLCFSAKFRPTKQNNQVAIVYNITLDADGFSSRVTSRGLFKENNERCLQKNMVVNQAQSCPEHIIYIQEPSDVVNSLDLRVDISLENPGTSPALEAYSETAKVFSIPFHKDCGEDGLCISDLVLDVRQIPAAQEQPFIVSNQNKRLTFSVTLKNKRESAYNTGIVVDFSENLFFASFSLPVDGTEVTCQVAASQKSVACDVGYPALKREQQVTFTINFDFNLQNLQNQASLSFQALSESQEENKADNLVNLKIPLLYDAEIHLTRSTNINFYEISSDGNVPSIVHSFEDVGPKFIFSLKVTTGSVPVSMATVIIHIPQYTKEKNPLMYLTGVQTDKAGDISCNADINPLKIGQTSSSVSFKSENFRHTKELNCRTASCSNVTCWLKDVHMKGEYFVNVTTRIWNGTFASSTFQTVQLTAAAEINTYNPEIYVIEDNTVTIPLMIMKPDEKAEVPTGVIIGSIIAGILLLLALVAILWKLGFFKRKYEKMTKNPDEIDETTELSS
T2 sequence (P05556 21-798): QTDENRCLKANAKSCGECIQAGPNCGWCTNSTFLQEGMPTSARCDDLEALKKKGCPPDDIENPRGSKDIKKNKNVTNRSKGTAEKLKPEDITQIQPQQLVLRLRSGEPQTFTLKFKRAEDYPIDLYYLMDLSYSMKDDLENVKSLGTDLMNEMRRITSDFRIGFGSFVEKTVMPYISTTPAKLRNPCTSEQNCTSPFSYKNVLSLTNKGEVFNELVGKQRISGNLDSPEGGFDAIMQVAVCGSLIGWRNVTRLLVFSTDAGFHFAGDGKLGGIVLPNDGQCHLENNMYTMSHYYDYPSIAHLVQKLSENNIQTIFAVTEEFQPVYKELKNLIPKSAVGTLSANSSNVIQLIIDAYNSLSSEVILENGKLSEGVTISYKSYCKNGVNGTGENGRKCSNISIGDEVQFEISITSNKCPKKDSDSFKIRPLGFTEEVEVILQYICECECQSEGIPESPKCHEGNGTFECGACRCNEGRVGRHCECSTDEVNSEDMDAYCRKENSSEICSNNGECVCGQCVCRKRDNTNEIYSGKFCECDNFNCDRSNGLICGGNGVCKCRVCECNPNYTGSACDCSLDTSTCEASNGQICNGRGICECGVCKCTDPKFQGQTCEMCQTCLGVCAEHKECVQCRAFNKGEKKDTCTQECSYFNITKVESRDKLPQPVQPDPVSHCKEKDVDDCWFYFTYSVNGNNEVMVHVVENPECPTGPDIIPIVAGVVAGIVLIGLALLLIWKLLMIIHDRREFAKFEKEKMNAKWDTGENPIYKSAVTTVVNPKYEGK

Question: “1-(4-methylphenylmethyl)-5-oxo-{N-[(3-t-butoxycarbonyl-aminomethyl)]-piperidin-1-yl}-pyrrolidine-2-carboxamides [Compound 1]” was tested. Which Platelet adhesion [1] did it give?
Answer: Its Platelet adhesion is “Effective”.

Question: What about the “Whole blood aggregation in hyperlipidemic hamsters” value (“Whole blood aggregation” for short) [2] of the same compound?
Answer: Its value is “Effective”.

Question: `Cc1ccc(CN2C(=O)CC[C@H]2C(=O)N2CCCC(CNC(=O)OC(C)(C)C)C2)cc1` (some centres unmarked) [Compound 1, 1-(4-methylphenylmethyl)-5-oxo-{N-[(3-t-butoxycarbonyl-aminomethyl)]-piperidin-1-yl}-pyrrolidine-2-carboxamides] was tested. Which “human platelet adhesion on fibrillar collagen (GP VI mediated)” value (from here on “human platelet adhesion … (GP VI mediated)”) [1] did it give?
Answer: Its value is “partially inhibited”.

Question: What about the “human platelet adhesion on soluble collagen (GP Ia IIa / α2β1 mediated)” value [3] of the same compound?
Answer: The value was “partially inhibited”.

Question: And the thrombin amidolytic activity [4]?
Answer: The thrombin amidolytic activity was “significant inhibitory effect”.

Question: `Cc1ccc(CN2C(=O)CC[C@H]2C(=O)N2CCC[C@@H](CNC(=O)OC(C)(C)C)C2)cc1` [Compound 6] was tested. Which “inhibition of Ristocetin induced platelet aggregation” value [5] did it give?
Answer: The value was “not to exhibit any effect”.

Question: What about the Platelet adhesion [1] of the same compound?
Answer: Its Platelet adhesion is “Effective (30”.

Question: And the “human platelet adhesion … (GP VI mediated)” value [1]?
Answer: Its value is “partially inhibited”.

Question: What about the “human platelet adhesion on soluble collagen (GP Ia IIa / α2β1 mediated)” value [3] of the same compound?
Answer: Its value is “partially inhibited”.

Question: What about the thrombin amidolytic activity [4] of the same compound?
Answer: The thrombin amidolytic activity was “remained ineffective”.

Question: And the “Whole blood aggregation” value [2]?
Answer: The value was “Effective”.

Question: For `Cc1ccc(CN2C(=O)CC[C@H]2C(=O)N2CCC[C@H](CNC(=O)OC(C)(C)C)C2)cc1` [Compound 7, (2S)-1-(4-methylphenylmethyl)-5-oxo-(3R)-{N-[(3-t-butoxycarbonyl-aminomethyl)]-piperidin-1-yl}-pyrrolidine-2-carboxamide], which “inhibition of Ristocetin induced platelet aggregation” value [5] is on record?
Answer: The value was “not to exhibit any effect”.

Question: What about the Platelet adhesion [1] of the same compound?
Answer: The Platelet adhesion was “Effective”.

Question: And the “human platelet adhesion … (GP VI mediated)” value [1]?
Answer: Its value is “partially inhibited”.

Question: And the “human platelet adhesion on soluble collagen (GP Ia IIa / α2β1 mediated)” value [3]?
Answer: Its value is “partially inhibited”.

Question: And the thrombin amidolytic activity [4]?
Answer: The thrombin amidolytic activity was “actively attenuated”.

Question: And the “Whole blood aggregation” value [2]?
Answer: Its value is “No effect”.
